This is an account of results in ChEMBL document CHEMBL1151840, “Synthetic oligoribonucleotides containing arabinonucleotides act as agonists of TLR7 and 8” (Bioorg Med Chem Lett, 2009).

For data set [1], the species on record is Homo sapiens. Description: Stimulation of immune response in human pDC assessed as induction of IFNalpha production at 150 ug/ml after 24 hrs. It is filed as functional.
The target in data set [2] is T1, Toll-like receptor 7 (Homo sapiens) (UniProt Q9NYK1).
T1 sequence (whole entry): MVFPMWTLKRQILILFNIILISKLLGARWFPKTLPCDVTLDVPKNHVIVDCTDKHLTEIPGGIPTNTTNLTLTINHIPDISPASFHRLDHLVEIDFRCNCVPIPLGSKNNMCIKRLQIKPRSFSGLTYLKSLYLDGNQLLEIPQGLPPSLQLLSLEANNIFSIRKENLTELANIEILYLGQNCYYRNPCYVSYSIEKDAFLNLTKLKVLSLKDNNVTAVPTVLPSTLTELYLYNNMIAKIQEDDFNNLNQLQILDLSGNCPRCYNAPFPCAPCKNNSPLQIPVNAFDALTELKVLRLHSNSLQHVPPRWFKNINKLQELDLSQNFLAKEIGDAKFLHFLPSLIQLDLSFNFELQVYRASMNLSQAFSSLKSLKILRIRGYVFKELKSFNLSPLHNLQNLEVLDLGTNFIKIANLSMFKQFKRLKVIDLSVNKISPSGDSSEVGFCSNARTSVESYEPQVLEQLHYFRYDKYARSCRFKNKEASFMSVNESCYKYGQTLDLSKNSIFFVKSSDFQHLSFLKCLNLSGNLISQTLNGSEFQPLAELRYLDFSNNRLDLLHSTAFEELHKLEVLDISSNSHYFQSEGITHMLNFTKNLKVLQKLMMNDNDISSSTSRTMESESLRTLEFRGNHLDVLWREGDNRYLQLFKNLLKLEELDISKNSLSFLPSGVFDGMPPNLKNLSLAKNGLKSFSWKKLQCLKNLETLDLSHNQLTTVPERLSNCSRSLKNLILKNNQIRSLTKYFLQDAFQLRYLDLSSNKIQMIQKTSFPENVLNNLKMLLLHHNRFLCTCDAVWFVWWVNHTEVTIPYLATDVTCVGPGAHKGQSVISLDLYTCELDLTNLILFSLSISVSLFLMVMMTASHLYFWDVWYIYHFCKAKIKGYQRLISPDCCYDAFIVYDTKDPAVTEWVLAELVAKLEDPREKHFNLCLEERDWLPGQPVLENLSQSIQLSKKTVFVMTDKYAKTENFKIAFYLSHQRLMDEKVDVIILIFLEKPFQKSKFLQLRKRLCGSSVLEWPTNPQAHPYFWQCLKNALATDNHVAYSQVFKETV
As to the kind of experiment: Agonist activity at human TLR7 expressed in HEK293XL cells assessed as NF-kappaB activation after 18 hrs. It is filed as functional, cell-based.

The species named for data set [3] is Homo sapiens. As to the kind of experiment: Stimulation of immune response in human pDC assessed as induction of MIP1beta production at 150 ug/ml after 24 hrs. It is filed as functional.
Data set [4] concerns PBMC. As to the kind of experiment: Stimulation of immune response in human PBMC assessed as induction of RANTES production at 150 ug/ml after 24 hrs. The class given is functional, cell-based.
Data set [5] is filed under the species Homo sapiens. As to the kind of experiment: Stimulation of immune response in human pDC assessed as induction of TNFalpha production at 150 ug/ml after 24 hrs. The class given is functional.
The species entered for data set [6] is Homo sapiens. Description: Stimulation of immune response in human pDC assessed as induction of MIP1alpha production at 150 ug/ml after 24 hrs. The class given is functional.
The test system of data set [7] is PBMC. As to the kind of experiment: Stimulation of immune response in human PBMC assessed as induction of MIP1beta production at 150 ug/ml after 24 hrs. It is filed as functional, cell-based.
Data set [8] relates to PBMC. Description: Stimulation of immune response in human PBMC assessed as induction of IFN-gamma production at 150 ug/ml after 24 hrs. It is filed as functional, cell-based.
In data set [9] the test system is PBMC. Description: Stimulation of immune response in human PBMC assessed as induction of IL8 production at 150 ug/ml after 24 hrs. The class given is functional, cell-based.
The subject of data set [10] is PBMC. Description: Stimulation of immune response in human PBMC assessed as induction of IFNalpha production at 150 ug/ml after 24 hrs. It is filed as functional, cell-based.
The subject of data set [11] is PBMC. Description: Stimulation of immune response in human PBMC assessed as induction of IL1-beta production at 150 ug/ml after 24 hrs. The class given is functional, cell-based.
The species entered for data set [12] is Homo sapiens. Description: Stimulation of immune response in human pDC assessed as induction of IFN-gamma production at 150 ug/ml after 24 hrs. It is filed as functional.
The target of data set [13] is T2, Toll-like receptor 8 (Homo sapiens) (UniProt Q9NR97).
T2 sequence (whole entry): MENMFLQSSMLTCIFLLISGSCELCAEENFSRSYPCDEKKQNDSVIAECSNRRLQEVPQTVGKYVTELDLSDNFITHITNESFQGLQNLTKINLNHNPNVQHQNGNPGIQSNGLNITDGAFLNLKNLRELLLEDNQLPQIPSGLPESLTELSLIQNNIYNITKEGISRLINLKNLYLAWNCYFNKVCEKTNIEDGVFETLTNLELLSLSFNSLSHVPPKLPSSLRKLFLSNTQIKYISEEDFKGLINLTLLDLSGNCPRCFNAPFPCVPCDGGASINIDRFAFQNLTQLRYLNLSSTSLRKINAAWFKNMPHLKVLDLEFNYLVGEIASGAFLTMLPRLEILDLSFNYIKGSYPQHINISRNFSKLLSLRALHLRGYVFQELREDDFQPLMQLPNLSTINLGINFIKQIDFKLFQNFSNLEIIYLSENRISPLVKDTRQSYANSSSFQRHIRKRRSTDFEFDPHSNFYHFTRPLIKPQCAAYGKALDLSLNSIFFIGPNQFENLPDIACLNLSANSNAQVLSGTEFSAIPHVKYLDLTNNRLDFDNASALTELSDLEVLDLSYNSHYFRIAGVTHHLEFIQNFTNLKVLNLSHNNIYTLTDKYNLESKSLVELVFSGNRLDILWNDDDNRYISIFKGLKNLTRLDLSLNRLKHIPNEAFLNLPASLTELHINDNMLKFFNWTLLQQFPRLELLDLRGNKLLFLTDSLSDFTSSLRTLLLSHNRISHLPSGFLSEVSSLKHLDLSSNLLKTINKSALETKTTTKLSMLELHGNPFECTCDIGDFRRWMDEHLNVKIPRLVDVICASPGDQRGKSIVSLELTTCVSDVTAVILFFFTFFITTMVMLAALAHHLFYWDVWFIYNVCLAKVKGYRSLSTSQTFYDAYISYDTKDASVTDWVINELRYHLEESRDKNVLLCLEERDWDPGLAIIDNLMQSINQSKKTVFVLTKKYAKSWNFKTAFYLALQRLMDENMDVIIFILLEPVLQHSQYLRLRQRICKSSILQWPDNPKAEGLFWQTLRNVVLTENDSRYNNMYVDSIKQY
As to the kind of experiment: Agonist activity at human TLR8 expressed in HEK293XL cells assessed as NF-kappaB activation after 18 hrs. The class given is functional, cell-based.

Data set [14] relates to PBMC. As to the kind of experiment: Stimulation of immune response in human PBMC assessed as induction of MIP1alpha production at 150 ug/ml after 24 hrs. It is filed as functional, cell-based.
Data set [15] concerns Mus musculus. Description: Stimulation of immune response in C57BL/6 mouse assessed as induction of serum IL12 production at 50 mg/kg, sc after 2 hrs by luminex multiplex assay. The class given is functional, organism-based. More on the design: dose 50 mg/kg.
The test system of data set [16] is PBMC. Description: Stimulation of immune response in human PBMC assessed as induction of MCP1 production at 150 ug/ml after 24 hrs. The class given is functional, cell-based.
For data set [17], the system named is PBMC. Description: Stimulation of immune response in human PBMC assessed as induction of IL10 production at 150 ug/ml after 24 hrs. It is filed as functional, cell-based.
Data set [18] concerns PBMC. Description: Stimulation of immune response in human PBMC assessed as induction of IL12 production at 150 ug/ml after 24 hrs. It is filed as functional, cell-based.
The species entered for data set [19] is Homo sapiens. As to the kind of experiment: Stimulation of immune response in human pDC assessed as induction of IL12 production at 150 ug/ml after 24 hrs. The class given is functional.
In data set [20] the test system is PBMC. Description: Stimulation of immune response in human PBMC assessed as induction of TNFalpha production at 150 ug/ml after 24 hrs. The class given is functional, cell-based.
For data set [21], the system named is PBMC. As to the kind of experiment: Stimulation of immune response in human PBMC assessed as induction of IL2R level at 150 ug/ml after 24 hrs. The class given is functional, cell-based.
Data set [22] can be described thus: Stability in human serum assessed as full-length compound remaining after 10 mins by anion-exchange HPLC. It is filed as ADME, cell-free. To be noted: read-out: Stability.

Calls of active or inactive are those of the source. The calls are words filed in the database; no cut-off is given here.

Take `Nc1ccn([C@@H]2O[C@H](COP(=O)(S)O[C@H]3[C@@H](O)[C@H](n4cnc5c(N)ncnc54)O[C@@H]3COP(=O)(S)O[C@H]3[C@@H](O)[C@H](n4cnc5c(=O)[nH]c(N)nc54)O[C@@H]3COP(=O)(S)O[C@H]3[C@@H](O)[C@H](n4ccc(=O)[nH]c4=O)O[C@@H]3COP(=O)(S)O[C@H]3[C@@H](O)[C@H](n4cnc5c(=O)[nH]c(N)nc54)O[C@@H]3COP(=O)(S)O[C@H]3[C@@H](O)[C@H](n4ccc(=O)[nH]c4=O)O[C@@H]3COP(=O)(S)O[C@H]3[C@@H](O)[C@H](n4cnc5c(=O)[nH]c(N)nc54)O[C@@H]3COP(=O)(S)O[C@H]3[C@@H](O)[C@H](n4ccc(=O)[nH]c4=O)O[C@@H]3COP(=O)(S)O[C@H]3[C@@H](O)[C@H](n4ccc(=O)[nH]c4=O)O[C@@H]3COP(=O)(S)O[C@H]3[C@@H](O)[C@H](n4cnc5c(=O)[nH]c(N)nc54)O[C@@H]3COP(=O)(S)O[C@H]3[C@@H](O)[C@H](n4ccc(=O)[nH]c4=O)O[C@H]3CO)[C@@H](OP(=O)(S)OCC(O)COP(=O)(S)O[C@H]3[C@@H](O)[C@H](n4ccc(N)nc4=O)O[C@@H]3COP(=O)(S)O[C@H]3[C@@H](O)[C@H](n4cnc5c(N)ncnc54)O[C@@H]3COP(=O)(S)O[C@H]3[C@@H](O)[C@H](n4cnc5c(=O)[nH]c(N)nc54)O[C@@H]3COP(=O)(S)O[C@H]3[C@@H](O)[C@H](n4ccc(=O)[nH]c4=O)O[C@@H]3COP(=O)(S)O[C@H]3[C@@H](O)[C@H](n4cnc5c(=O)[nH]c(N)nc54)O[C@@H]3COP(=O)(S)O[C@H]3[C@@H](O)[C@H](n4ccc(=O)[nH]c4=O)O[C@@H]3COP(=O)(S)O[C@H]3[C@@H](O)[C@H](n4cnc5c(=O)[nH]c(N)nc54)O[C@@H]3COP(=O)(S)O[C@H]3[C@@H](O)[C@H](n4ccc(=O)[nH]c4=O)O[C@@H]3COP(=O)(S)O[C@H]3[C@@H](O)[C@H](n4ccc(=O)[nH]c4=O)O[C@@H]3COP(=O)(S)O[C@H]3[C@@H](O)[C@H](n4cnc5c(=O)[nH]c(N)nc54)O[C@@H]3COP(=O)(S)O[C@H]3[C@@H](O)[C@H](n4ccc(=O)[nH]c4=O)O[C@@H]3CO)[C@H]2O)c(=O)n1` (stereo in doubt; 5): the result in data set [1], in data set [2] and in [15] was inactive. The result in [3], in data set [4], in [5], in data set [6], in [7] and in data set [8] was Active. The result in data set [9], in [10], in data set [11], in data set [12], in data set [14] and in [16] was Active. Besides, the outcome in data set [17], in data set [18], in data set [19], in data set [20] and in data set [21] was Active. For the same compound, in [13], the Activity entry is “Dose-dependent effect”.

With `Nc1ccn([C@@H]2O[C@H](COP(=O)(S)O[C@H]3[C@@H](O)[C@H](n4cnc5c(N)ncnc54)O[C@@H]3COP(=O)(S)O[C@H]3[C@@H](O)[C@H](n4cnc5c(=O)[nH]c(N)nc54)O[C@@H]3COP(=O)(S)O[C@H]3[C@@H](O)[C@H](n4ccc(=O)[nH]c4=O)O[C@@H]3COP(=O)(S)O[C@H]3[C@@H](O)[C@H](n4cnc5c(=O)[nH]c(N)nc54)O[C@@H]3COP(=O)(S)O[C@H]3[C@@H](O)[C@H](n4ccc(=O)[nH]c4=O)O[C@@H]3COP(=O)(S)O[C@H]3[C@@H](O)[C@H](n4cnc5c(=O)[nH]c(N)nc54)O[C@@H]3COP(=O)(S)O[C@H]3[C@@H](O)[C@H](n4ccc(=O)[nH]c4=O)O[C@@H]3COP(=O)(S)O[C@H]3[C@@H](O)[C@H](n4ccc(=O)[nH]c4=O)O[C@@H]3COP(=O)(S)O[C@H]3[C@@H](O)[C@H](n4cnc5c(=O)[nH]c(N)nc54)O[C@@H]3COP(=O)(S)O[C@H]3[C@@H](O)[C@H](n4ccc(=O)[nH]c4=O)O[C@H]3CO)[C@@H](OP(=O)(S)OCC(O)COP(=O)(S)O[C@H]3[C@@H](O)[C@H](n4ccc(N)nc4=O)O[C@@H]3COP(=O)(S)O[C@H]3[C@@H](O)[C@H](n4cnc5c(N)ncnc54)O[C@@H]3COP(=O)(S)O[C@H]3[C@@H](O)[C@H](n4cnc5c(=O)[nH]c(N)nc54)O[C@@H]3COP(=O)(S)O[C@H]3[C@@H](O)[C@H](n4ccc(=O)[nH]c4=O)O[C@@H]3COP(=O)(S)O[C@H]3[C@@H](O)[C@H](n4cnc5c(=O)[nH]c(N)nc54)O[C@@H]3COP(=O)(S)O[C@H]3[C@@H](O)[C@H](n4ccc(=O)[nH]c4=O)O[C@@H]3COP(=O)(S)O[C@H]3[C@@H](O)[C@H](n4cnc5c(=O)[nH]c(N)nc54)O[C@@H]3COP(=O)(S)O[C@H]3[C@@H](O)[C@H](n4ccc(=O)[nH]c4=O)O[C@@H]3COP(=O)(S)O[C@H]3[C@@H](O)[C@H](n4ccc(=O)[nH]c4=O)O[C@@H]3COP(=O)(S)O[C@H]3[C@@H](O)[C@H](n4cnc5c(=O)[nH]c(N)nc54)O[C@@H]3COP(=O)(S)O[C@H]3[C@@H](O)[C@H](n4ccc(=O)[nH]c4=O)O[C@@H]3CO)[C@H]2O)c(=O)n1` (stereo in doubt; 6), in [22], the remaining at 10 min was found to be 76%.
